# Measurements reported in US4182896A, “Indane derivatives” (Societe Hexachimie, priority 1974, dated 1980).
# Where a name gives a salt, the structure may show the parent alone.
# Legend:
# [1] = system: SPF male rats, OFA strain; assay: Anti-inflammatory activity: paw swelling after subcutaneous plantar injection of carraghenine, oral administration; format: in vivo; conditions: for inhibition in vivo at 32 mg/kg / inhibition in vivo at 64 mg/kg / inhibition in vivo at 128 mg/kg / inhibition in vivo at 256 mg/kg / ED50 / inhibition in vivo at 16 mg/kg / inhibition in vivo at 512 mg/kg: Rattus norvegicus, po; for inhibition in vivo at 32 mg/kg: 32 mg/kg oral; for inhibition in vivo at 32 mg/kg / inhibition in vivo at 64 mg/kg / inhibition in vivo at 128 mg/kg / inhibition in vivo at 256 mg/kg / inhibition in vivo at 16 mg/kg / inhibition in vivo at 512 mg/kg: read-out: percentage reduction in the inflammation; for inhibition in vivo at 64 mg/kg: 64 mg/kg oral; for inhibition in vivo at 128 mg/kg: 128 mg/kg oral; for inhibition in vivo at 256 mg/kg: 256 mg/kg oral; for ED50: at the moment of greatest swelling of the controls, read-out: ED50 (50% effective dose), anti-inflammatory; for inhibition in vivo at 512 mg/kg: 512 mg/kg oral
# Experimental: Anti-inflammatory activity
# The products to be tested are administered orally to batches of 12 SPF male rats, OFA strain, weighing 120-130 g, 2 hours and 30 minutes (1/2 dose each time) before the subcutaneous plantar injection of 0.05 ml of a 1% strength solution of carraghenine. The volume of the back paw which received the phlogogenic agent is measured at regular intervals. The 50% effective dose is calculated at the moment of greatest swelling of the controls.
# The results are given in Tables I to IV below, in which the percentage reduction in the inflammation is noted.
# [2] = system: male mice (SPF1, OF1 strain); assay: Analgesic activity: inhibition of pain reactions (abdominal twistings) after intraperitoneal phenylbenzoquinone, oral administration; format: in vivo; conditions: for percentage inhibition of pain reactions: mouse; for inhibition in vivo at 32 mg/kg: 32 mg/kg oral; for ED50: read-out: ED50 (50% effective dose), analgesic; for inhibition in vivo at 64 mg/kg: 64 mg/kg oral; for inhibition in vivo at 16 mg/kg: 16 mg/kg oral; for inhibition in vivo at 8 mg/kg: 8 mg/kg oral
# Experimental: The products tested are administered orally to batches of 6 male mice (SPF1, OF1 strain) weighing 19-20 g.
# 1 hour later, 0.3 ml of a 0.02% strength solution of phenylbenzoquinone is injected intraperitoneally into each mouse and, from the 5th to the 10th minute after the latter treatment, the number of pain reactions (abdominal twistings) is counted.
# Table V to VIII below give the percentage inhibition of these reactions.
# [3] = Mus musculus, po, read-out: percentage inhibition of pain reactions
# [4] = Mus musculus, po, 128 mg/kg oral, read-out: percentage inhibition of pain reactions
# [5] = Mus musculus, po, 256 mg/kg oral, read-out: percentage inhibition of pain reactions
SMILES,"percentage reduction in the inflammation ([1]; 16 mg/kg oral, rat, carraghenine)",inhibition in vivo at 32 mg/kg ([1]; carraghenine),inhibition in vivo at 64 mg/kg ([1]; carraghenine),inhibition in vivo at 128 mg/kg ([1]; carraghenine),inhibition in vivo at 256 mg/kg ([1]; carraghenine),ED50 [1],percentage inhibition of pain reactions ([2]; 128 mg/kg oral),percentage inhibition of pain reactions ([2]; 256 mg/kg oral),percentage inhibition of pain reactions ([2]; 512 mg/kg oral),"inhibition in vivo at 32 mg/kg [2, 3]","ED50 ([2]; Mus musculus, po)","inhibition in vivo at 64 mg/kg [2, 3]","inhibition in vivo at 128 mg/kg [2, 4]","inhibition in vivo at 256 mg/kg [2, 5]","inhibition in vivo at 512 mg/kg ([2]; Mus musculus, po, 512 mg/kg oral, read-out: percentage inhibition of pain reactions)","inhibition in vivo at 16 mg/kg ([1]; 16 mg/kg oral, carraghenine)",inhibition in vivo at 512 mg/kg ([1]; carraghenine),"inhibition in vivo at 16 mg/kg [2, 3]","inhibition in vivo at 8 mg/kg [2, 3]"
"CCC(C(=O)O)c1ccc2c(c1)CC(C(C)C)C2 (stereo not drawn) [Example 20, Dimethylaminoethanol salt of 2-ethyl-[2-isopropyl-indanyl-(5)]-acetic acid]",16%,24%,25%,38%,37%,> 256 mg/kg,27%,74%,100%,26%,175 mg/kg,,,,,,,,
"CC1Cc2ccc(CC(=O)OCCN3CCOCC3)cc2C1 (stereo not drawn) [Example 21, Hydrochloride of the morpholino-ethyl ester of [2-methyl-indanyl-(5)]-acetic acid]",,17%,25%,52%,68%,130 mg/kg,,,,,200 mg/kg,2%,51%,71%,81%,,,,
"CC1Cc2ccc(C(C)C(=O)OCCN3CCOCC3)cc2C1 (stereo not drawn) [Example 22, Oxalate of the morpholino-ethyl ester of 2-methyl-[2-methyl-indanyl-(5)]-acetic acid]",,7%,12%,11%,34%,480 mg/kg,,,,19%,45 mg/kg,73%,86%,98%,,17%,52%,13%,
"CC1(C)Cc2ccc(CC(=O)OCCN3CCOCC3)cc2C1 [Example 23, Hydrochloride of the morpholino-ethyl ester of [2,2-dimethyl-indanyl-(5)]-acetic acid]",,9%,30%,50%,55%,140 mg/kg,,,,36%,,82%,45%,45%,,,90%,20%,1%
"CC(C(=O)OCCN1CCOCC1)c1ccc2c(c1)CC(C)(C)C2 (stereo not drawn) [Example 24, Hydrochloride of the morpholino-ethyl ester of 2-methyl-[2,2-dimethyl-indanyl-(5)]-acetic acid]",,21%,36%,50%,57%,142 mg/kg,,,,32%,35 mg/kg,53%,97%,,,7%,73%,24%,0%
"CC(C(=O)OCCN1CCOCC1)c1ccc2c(c1)CC(C1CCCCC1)C2 (stereo not drawn) [Example 25, Hydrochloride of the morpholino-ethyl ester of 2-methyl-[2-cyclohexyl-indanyl-(5)]-acetic acid]",,28%,7%,12%,10%,> 256 mg/kg,,,,19%,80 mg/kg,50%,64%,,,26%,,,
